Source: BindingDB's records for doi:10.1021/jm00159a013 (1986)

Each compound was assayed against Prostacyclin synthase (Sus scrofa) (assay: Inhibition of porcine aorta prostacyclin PGI-2 synthetase).
`Cc1c(Cn2ccnc2)sc2ccc(C(=O)O)cc12` [2-Imidazol-1-ylmethyl-3-methyl-benzo[b]thiophene-5-carboxylic acid] was tested, and the IC50 was > 100 µM. `Cc1c(Cn2ccnc2)sc2cc(C(=O)O)ccc12` [2-Imidazol-1-ylmethyl-3-methyl-benzo[b]thiophene-6-carboxylic acid] was tested, and the IC50 was > 100 µM. `Cc1c(Cn2ccnc2)oc2ccc(C(=O)O)cc12` [2-Imidazol-1-ylmethyl-3-methyl-benzofuran-5-carboxylic acid] was tested, and the IC50 was > 100 µM. For `O=C(O)c1ccc2sc(Cn3ccnc3)cc2c1` [2-Imidazol-1-ylmethyl-benzo[b]thiophene-5-carboxylic acid], the IC50 was > 100 µM. With `O=C(O)c1ccc2c(Cl)c(Cn3ccnc3)sc2c1` [3-Chloro-2-imidazol-1-ylmethyl-benzo[b]thiophene-6-carboxylic acid] the IC50 was > 100 µM. In the case of `O=C(O)c1ccc2oc(Cn3ccnc3)c(Cl)c2c1` [3-Chloro-2-imidazol-1-ylmethyl-benzofuran-5-carboxylic acid], the IC50 is reported as > 100 µM.
